Data from patent US10266609B2, “Immunomodulating beta-1,6-D-glucans” (Innate Biotherapeutics, LLC, priority 2014, dated 2019).

tested on: Anti-β-1,6-Glucan IgG antibodies (affinity purified from IVIG, Baxter); assay: ELISA: binding of oligosaccharides to anti-β-1,6-glucan antibodies; details: plate coated with oligosaccharide in PBS; 40 ug/mL anti-Beta 1,6 Glucan IgG; anti-human IgG-HRP, TMB, absorbance at 620 nm; further: key: a plus (+) sign indicates that the glucan was active in the assay; a minus (−) sign indicates that the glucan was not active; the '+/−' symbol indicates inconclusive results
Description: Binding of oligosaccharides to anti-β-1,6-glucan antibodies is performed as described in the following protocol.
• 1. […] Anti-β-1,6-Glucan IgG antibodies (affinity purified from IVIG, Baxter) • 6. […] PBS-Tween buffer (PH 7.2, 0.05% Tween 20, Kpl cat #51-12-01) II. Method: Detection of Anti-Beta Glucan IgG by ELISA • 1. Coat plate with oligosaccharides in PBS overnight at 4° C. • 2. Wash 3 times with 250 uL of PBS-Tween • 3. Empty plate • 4. Block plate with 200 uL of Casein for 1 hour at room temperature • 5. Empty plate • 6. Add 40 ug/mL anti-Beta 1,6 Glucan IgG (4 ug/well) in Casein • 7. Incubate for 45 min at room temperature • 8. Wash 3 times with 250 uL of PBS-Tween • 9. Empty plate • 10. Add detection antibody: anti-human IgG-HRP at 1:5000—in casein. Incubate for 45 min at room temperature in the dark • 11. Wash 5 times with 250 uL of PBS-Tween • 12. Empty plate • 13. Add 100 uL of one step ultra TMB • 14. Measure the absorbance at 620 nm every 1 min for 60 min Tables 1-3 provide ELISA assay data for certain glucan compounds.

ELISA assay data: glucan active in detection of anti-beta glucan IgG | Compound
+ | 1-O-[2-(2-oxymethoxy)ethoxy]-6-O—[O-β-D-glucopyranosyl-(1,6)]3-β-D-glucopyranoside [β-O(CH2)2O(CH2)2C═O, n=4]
+ | O=C(O)C1CCN(CC(O)[C@@H](O)[C@H](O)[C@H](O)CO[C@@H]2O[C@H](CO[C@@H]3O[C@H](CO[C@@H]4O[C@H](CO)[C@@H](O)[C@H](O)[C@H]4O)[C@@H](O)[C@H](O)[C@H]3O)[C@@H](O)[C@H](O)[C@H]2O)C1 (mixture of isomers) [3-pyrrolidineCO2H, n=3]
+ | O=C(O)C1CCN(CC(O)[C@@H](O)[C@H](O)[C@H](O)CO[C@@H]2O[C@H](CO[C@@H]3O[C@H](CO[C@@H]4O[C@H](CO[C@@H]5O[C@H](CO)[C@@H](O)[C@H](O)[C@H]5O)[C@@H](O)[C@H](O)[C@H]4O)[C@@H](O)[C@H](O)[C@H]3O)[C@@H](O)[C@H](O)[C@H]2O)C1 (mixture of isomers) [3-pyrrolidineCO2H, n=4]
+ | O=C(O)C1CCN(CC(O)[C@@H](O)[C@H](O)[C@H](O)CO[C@@H]2O[C@H](CO[C@@H]3O[C@H](CO[C@@H]4O[C@H](CO[C@@H]5O[C@H](CO[C@@H]6O[C@H](CO)[C@@H](O)[C@H](O)[C@H]6O)[C@@H](O)[C@H](O)[C@H]5O)[C@@H](O)[C@H](O)[C@H]4O)[C@@H](O)[C@H](O)[C@H]3O)[C@@H](O)[C@H](O)[C@H]2O)C1 (mixture of isomers) [3-pyrrolidineCO2H, n=5]
+ | CN(Cc1ccc(C(=O)O)cc1)CC(O)[C@@H](O)[C@H](O)[C@H](O)CO[C@@H]1O[C@H](CO[C@@H]2O[C@H](CO[C@@H]3O[C@H](CO[C@@H]4O[C@H](CO)[C@@H](O)[C@H](O)[C@H]4O)[C@@H](O)[C@H](O)[C@H]3O)[C@@H](O)[C@H](O)[C@H]2O)[C@@H](O)[C@H](O)[C@H]1O (mixture of isomers) [N(Me),N(CH2)4-BzOH, n=4]
+ | CN(Cc1ccc(C(=O)O)cc1)CC(O)[C@@H](O)[C@H](O)[C@H](O)CO[C@@H]1O[C@H](CO[C@@H]2O[C@H](CO[C@@H]3O[C@H](CO[C@@H]4O[C@H](CO[C@@H]5O[C@H](CO)[C@@H](O)[C@H](O)[C@H]5O)[C@@H](O)[C@H](O)[C@H]4O)[C@@H](O)[C@H](O)[C@H]3O)[C@@H](O)[C@H](O)[C@H]2O)[C@@H](O)[C@H](O)[C@H]1O (mixture of isomers) [N(Me),N(CH2)4-BzOH, n=5]
+ | CN(Cc1ccc(C(=O)O)cc1)CC(O)[C@@H](O)[C@H](O)[C@H](O)CO[C@@H]1O[C@H](CO[C@@H]2O[C@H](CO[C@@H]3O[C@H](CO[C@@H]4O[C@H](CO[C@@H]5O[C@H](CO[C@@H]6O[C@H](CO)[C@@H](O)[C@H](O)[C@H]6O)[C@@H](O)[C@H](O)[C@H]5O)[C@@H](O)[C@H](O)[C@H]4O)[C@@H](O)[C@H](O)[C@H]3O)[C@@H](O)[C@H](O)[C@H]2O)[C@@H](O)[C@H](O)[C@H]1O (mixture of isomers) [N(Me),N(CH2)4-BzOH, n=6]
+ | CN(CCCCCN)CC(O)[C@@H](O)[C@H](O)[C@H](O)CO[C@@H]1O[C@H](CO[C@@H]2O[C@H](CO[C@@H]3O[C@H](CO)[C@@H](O)[C@H](O)[C@H]3O)[C@@H](O)[C@H](O)[C@H]2O)[C@@H](O)[C@H](O)[C@H]1O (mixture of isomers) [N(Me),N(CH2)5NH2, n=3]
+ | CN(CCCCCN)CC(O)[C@@H](O)[C@H](O)[C@H](O)CO[C@@H]1O[C@H](CO[C@@H]2O[C@H](CO[C@@H]3O[C@H](CO[C@@H]4O[C@H](CO[C@@H]5O[C@H](CO)[C@@H](O)[C@H](O)[C@H]5O)[C@@H](O)[C@H](O)[C@H]4O)[C@@H](O)[C@H](O)[C@H]3O)[C@@H](O)[C@H](O)[C@H]2O)[C@@H](O)[C@H](O)[C@H]1O (mixture of isomers) [N(Me),N(CH2)5NH2, n=5]
+ | CN(CCCCCN)CC(O)[C@@H](O)[C@H](O)[C@H](O)CO[C@@H]1O[C@H](CO[C@@H]2O[C@H](CO[C@@H]3O[C@H](CO[C@@H]4O[C@H](CO[C@@H]5O[C@H](CO[C@@H]6O[C@H](CO)[C@@H](O)[C@H](O)[C@H]6O)[C@@H](O)[C@H](O)[C@H]5O)[C@@H](O)[C@H](O)[C@H]4O)[C@@H](O)[C@H](O)[C@H]3O)[C@@H](O)[C@H](O)[C@H]2O)[C@@H](O)[C@H](O)[C@H]1O (mixture of isomers) [N(Me),N(CH2)5NH2, n=6]
+ | [N-]=[N+]=NCCO[C@@H]1O[C@H](CO[C@@H]2O[C@H](CO[C@@H]3O[C@H](CO[C@@H]4O[C@H](CO)[C@@H](O)[C@H](O)[C@H]4O)[C@@H](O)[C@H](O)[C@H]3O)[C@@H](O)[C@H](O)[C@H]2O)[C@@H](O)[C@H](O)[C@H]1O (stereo in doubt) [β-O(CH2)2N3, n=4, 2-Azido ethyl [O-β-D-glucopyranosyl-1,6]3-β-D-glucopyranoside]
+ | O=C(O)c1cc(OCc2cn(CCO[C@H]3O[C@H](CO[C@@H]4O[C@H](CO[C@@H]5O[C@H](CO)[C@@H](O)[C@H](O)[C@H]5O)[C@@H](O)[C@H](O)[C@H]4O)[C@@H](O)[C@H](O)[C@H]3O)nn2)cc(OCc2cn(CCO[C@H]3O[C@H](CO[C@@H]4O[C@H](CO[C@@H]5O[C@H](CO)[C@@H](O)[C@H](O)[C@H]5O)[C@@H](O)[C@H](O)[C@H]4O)[C@@H](O)[C@H](O)[C@H]3O)nn2)c1 [(β-D-glucopyanosy1-1,6)nα-O(CH2)2-, n=3, 3,5-bis(1[2-[O-β-D-glucopyranosyl-(1→6)-O-β-D-glucopyranosyl-(1→6)-α-D-glucopyranosyl]oxy]ethyl-1H-1,2,3-triazol-4-yl)methoxybenzoic acid]
+ | O=C(O)c1cc(OCc2cn(CCO[C@@H]3O[C@H](CO[C@@H]4O[C@H](CO[C@@H]5O[C@H](CO[C@@H]6O[C@H](CO)[C@@H](O)[C@H](O)[C@H]6O)[C@@H](O)[C@H](O)[C@H]5O)[C@@H](O)[C@H](O)[C@H]4O)[C@@H](O)[C@H](O)[C@H]3O)nn2)cc(OCc2cn(CCO[C@@H]3O[C@H](CO[C@@H]4O[C@H](CO[C@@H]5O[C@H](CO[C@@H]6O[C@H](CO)[C@@H](O)[C@H](O)[C@H]6O)[C@@H](O)[C@H](O)[C@H]5O)[C@@H](O)[C@H](O)[C@H]4O)[C@@H](O)[C@H](O)[C@H]3O)nn2)c1 [(β-D-glucopyanosy1-1,6)nβ-O(CH2)2-, n=4, 3,5-bis(1[2-[O-β-D-glucopyranosyl-(1→6)]4oxy]ethyl-1H-1,2,3-triazol-4-yl)methoxybenzoic acid]
+ | O=C(O)c1cc(OCc2cn(CCO[C@@H]3O[C@H](CO[C@@H]4O[C@H](CO[C@@H]5O[C@H](CO[C@@H]6O[C@H](CO[C@@H]7O[C@H](CO)[C@@H](O)[C@H](O)[C@H]7O)[C@@H](O)[C@H](O)[C@H]6O)[C@@H](O)[C@H](O)[C@H]5O)[C@@H](O)[C@H](O)[C@H]4O)[C@@H](O)[C@H](O)[C@H]3O)nn2)cc(OCc2cn(CCO[C@@H]3O[C@H](CO[C@@H]4O[C@H](CO[C@@H]5O[C@H](CO[C@@H]6O[C@H](CO[C@@H]7O[C@H](CO)[C@@H](O)[C@H](O)[C@H]7O)[C@@H](O)[C@H](O)[C@H]6O)[C@@H](O)[C@H](O)[C@H]5O)[C@@H](O)[C@H](O)[C@H]4O)[C@@H](O)[C@H](O)[C@H]3O)nn2)c1 [(β-D-glucopyanosy1-1,6)nβ-O(CH2)2-, n=5, 3,5-bis(1[2-[O-β-D-glucopyranosyl-(1→6)]5oxy]ethyl-1H-1,2,3-triazol-4-yl)methoxybenzoic acid]

Compound | ELISA assay data: glucan active in detection of anti-beta glucan IgG
3,5-bis(1-[2-[O-β-D-glucopyranosyl-(1→6)-O-β-D-glucopyranosyl-(1→6)-O-β-D-glucopyranosyl-(1→6)-α-D-glucopyranosyl]oxy]ethyl-1H-1,2,3-triazol-4-yl)methoxybenzoic acid [(β-D-glucopyanosy1-1,6)nα-O(CH2)2-, n=4] | +
O=C(O)C1CCN(CC(O)[C@@H](O)[C@H](O)[C@H](O)CO[C@@H]2O[C@H](CO[C@@H]3O[C@H](CO[C@@H]4O[C@H](CO)[C@@H](O)[C@H](O)[C@H]4O)[C@@H](O)[C@H](O)[C@H]3O)[C@@H](O)[C@H](O)[C@H]2O)CC1 (mixture of isomers) [4-piperidineCO2H, n=3, N-[6-[(O-β-D-glucopyranosyl-(1,6))2-β-D-glucopyranosyl](2RS,3R,4R,5R)-2,3,4,5-tetrahydroxyhexyl]piperidine-4-carboxylic acid] | +
O=C(O)C1CCN(CC(O)[C@@H](O)[C@H](O)[C@H](O)CO[C@@H]2O[C@H](CO[C@@H]3O[C@H](CO[C@@H]4O[C@H](CO[C@@H]5O[C@H](CO)[C@@H](O)[C@H](O)[C@H]5O)[C@@H](O)[C@H](O)[C@H]4O)[C@@H](O)[C@H](O)[C@H]3O)[C@@H](O)[C@H](O)[C@H]2O)CC1 (mixture of isomers) [4-piperidineCO2H, n=4] | +
O=C(O)C1CCN(CC(O)[C@@H](O)[C@H](O)[C@H](O)CO[C@@H]2O[C@H](CO[C@@H]3O[C@H](CO[C@@H]4O[C@H](CO[C@@H]5O[C@H](CO[C@@H]6O[C@H](CO)[C@@H](O)[C@H](O)[C@H]6O)[C@@H](O)[C@H](O)[C@H]5O)[C@@H](O)[C@H](O)[C@H]4O)[C@@H](O)[C@H](O)[C@H]3O)[C@@H](O)[C@H](O)[C@H]2O)CC1 (mixture of isomers) [4-piperidineCO2H, n=5] | +
